# Experimental data published in patent publication US4387059A, “Ureylenebis substituted (or unsubstituted) phenylene-carbonyl (or sulfonyl)-imino-1,3,5 or 6-naphthalene-trisulfonic acids and salts” (American Cyanamid Company, priority 1981, dated 1983).
# Structures can show the parent of a compound that is named as a salt.
# Columns and labels:
# [1] = system: late components of human complement (C3-C9); assay: Test Code 035 (C3-C9 inhibitor): lysis of EAC 142 by late components of human complement; assay type: cell-based; conditions: serial twofold dilution assay, higher well number indicates higher activity
# From the text: (§1) An active inhibitor protects C2 from C1 and C4; (ii) Test Code 035 (C3-C9 inhibitor)--This test determines the ability of the late components of human complement (C3-C9) to lyse EAC 142 in the presence of appropriate dilutions of the test compound. An active inhibitor protects EAC 142 from lysis by human C3-C9; (iii) Test Code 036 (C-Shunt inhibitor)--In this test human erythrocytes rendered fragile are lysed in autologous serum via the shunt pathway activated by cobra venom factor in the presence of appropriate dilutions of the test compound. Inhibition of the shunt pathway results in failure of lysis; (iv) Cap 50 Test--Here, appropriate amounts of the test compound are added to a pool of guinea pig serum in vitro, after which the complement level is determined in undiluted serum by the serum capillary tube assay of U.S. Pat. No. 3,876,376. The concentration of compound inhibiting 50% is reported; and (v) Guinea Pig Intraperitoneal Test (GPIP)--Guinea pigs weighing about 300 g are dosed intraperitoneally (i.p.) with 200 mg/kg of the test compound dissolved in saline and adjusted to pH 7-8. […] Percent inhibition is calculated by comparison with simultaneous controls. […]
# human C1 = assay: Test Code 026 (C1 inhibitor): ability of activated human C1 to destroy fluid phase human C2 in the presence of C4; assay type: biochemical; conditions: serial twofold dilution assay, higher well number indicates higher activity
# From the text: as §1
# complement = assay: in vivo complement inhibition in guinea pig (GPIP test), capillary complement assay of sera; conditions: Intravenous, i.p. 200 mg/kg
# shunt pathway = assay: Test Code 036 (C-Shunt inhibitor): lysis of fragile human erythrocytes in autologous serum via shunt pathway activated by cobra venom factor; assay type: cell-based; conditions: serial twofold dilution assay, higher well number indicates higher activity
# From the text: as §1
# complement system = conditions: Br. J. Exp. Pathol. 33: 327 (1952); cited from earlier work
# [2] = literature reports; cited from earlier work
# [3] = system: total hemolytic complement activity (human serum); conditions: in vitro and in vivo, Pathol. Biol. 25 (1977); cited from earlier work
molecule,measurement,setting,value
"O=C(Nc1ccc(C(=O)Nc2ccc(C(=O)Nc3ccc(C(=O)Nc4cc(S(=O)(=O)O)cc5cc(S(=O)(=O)O)cc(S(=O)(=O)O)c45)c(S(=O)(=O)O)c3)c(S(=O)(=O)O)c2)c(S(=O)(=O)O)c1)Nc1ccc(C(=O)Nc2ccc(C(=O)Nc3ccc(C(=O)Nc4cc(S(=O)(=O)O)cc5cc(S(=O)(=O)O)cc(S(=O)(=O)O)c45)c(S(=O)(=O)O)c3)c(S(=O)(=O)O)c2)c(S(=O)(=O)O)c1 [8,8'-Ureylenebis[tris[(2-sulfo-p-phenylenecarbonyl)imino]]-di-1,3,6-naphthalenetrisulfonic acid, dodecasodium salt]",in vitro Activity C-Late 035* Wells,[1],+2 Wells
same,in vitro Activity C1 026* Wells,human C1,+5 Wells
same,in vivo Activity (Guinea Pig) % Inhibition,complement; Time 2 Minutes,95%
same,in vivo Activity (Guinea Pig) % Inhibition,complement; Time 30 Minutes,54%
same,in vivo Activity (Guinea Pig) % Inhibition,complement; Time 120 Minutes,14%
"O=C(Nc1cccc(S(=O)(=O)Nc2cccc(S(=O)(=O)Nc3cccc(S(=O)(=O)Nc4cc(S(=O)(=O)O)cc5cc(S(=O)(=O)O)cc(S(=O)(=O)O)c45)c3)c2)c1)Nc1cccc(S(=O)(=O)Nc2cccc(S(=O)(=O)Nc3cccc(S(=O)(=O)Nc4cc(S(=O)(=O)O)cc5cc(S(=O)(=O)O)cc(S(=O)(=O)O)c45)c3)c2)c1 [8,8'-[Ureylenebis[[[[[[[(m-phenylenesulfonyl)imino]-m-phenylene]sulfonyl]imino]-m-phenylene]sulfonyl]-imino]]-1,3,6-naphthalenetrisulfonic acid, hexasodium salt]",in vitro Activity C-Late 035* Wells,[1],+4 Wells
same,in vitro Activity C1 026* Wells,human C1,+4 Wells
same,in vitro Activity C-Shunt Inhibition 036* Wells,shunt pathway,+1 Wells
"Nc1ccc2cc(S(=O)(=O)[O-])cc(O)c2c1N=Nc1ccc(NC(=O)Nc2ccc(N=Nc3c(N)ccc4cc(S(=O)(=O)[O-])cc(O)c34)c(S(=O)(=O)[O-])c2)cc1S(=O)(=O)[O-].[Na+].[Na+].[Na+].[Na+] [chlorazol fast pink, 3,3'-ureylenebis[6-(2-amino-8-hydroxy-6-sulfo-1-naphthylazo)benzenesulfonic acid], tetrasodium salt]",anti-complementary effect,complement system,anti-complementary effect
NCCCCCC(=O)O [epsilon-aminocaproic acid],treatment of hereditary angioneurotic edema,[2],used with success in the treatment of hereditary angioneurotic edema
NC[C@H]1CC[C@H](C(=O)O)CC1 [tranexamic acid],treatment of hereditary angioneurotic edema,[2],used with success in the treatment of hereditary angioneurotic edema
heparin,anti-complementary effect,complement system,anti-complementary effect
pentosanpolysulfoester,anticomplementary activity (reduction in total hemolytic complement activity),[3],"anticomplementary activity on human serum, both in vitro and in vivo"
